According to PMC11203266, “Continuous evolution of compact protein degradation tags regulated by selective molecular glues” (Science (New York, N.Y.), 2024):
Entries after “also recorded” stand apart in the source; their conditions may differ.

Legend:
MOLT4 cells = test: Global quantitative proteomics, MOLT4; assay type: cell-based, human; conditions: 1 µM; for proteins downregulated (in words): 5 hours, threshold ≥ 2-fold at p ≤ 0.0001
Description: (§1) Cells were lysed by addition of lysis buffer (8 M Urea, 50 mM NaCl, 50 mM 4-(2-hydroxyethyl)-1-piperazineethanesulfonic acid (EPPS) pH 8.5, Protease and Phosphatase inhibitors) and homogenization by bead beating (BioSpec) for three repeats of 30 seconds at 2400. Bradford assay was used to determine the final protein concentration in the clarified cell lysate. 50 μg of protein for each sample was reduced, alkylated and precipitated using methanol/chloroform as previously described ([32]) and the resulting washed precipitated protein was allowed to air dry. Precipitated protein was resuspended in 4 M Urea, 50 mM HEPES pH 7.4, followed by dilution to <1 M urea with the addition of 200 mM EPPS, pH 8. Proteins were digested with LysC (1:50; enzyme:protein) and trypsin (1:50; enzyme:protein) overnight at 37 °C. Sample digests were acidified with formic acid to a pH of 2-3 prior to desalting using C18 solid phase extraction plates (SOLA, Thermo Fisher Scientific). Desalted peptides were dried in a vacuum centrifuge and reconstituted in 0.1% formic acid for LC-MS analysis.
(§2) Data were collected using a TimsTOF Pro2 (Bruker Daltonics, Bremen, Germany) coupled to a nanoElute LC pump (Bruker Daltonics, Bremen, Germany) via a CaptiveSpray nano-electrospray source. Peptides were separated on a reversed-phase C18 column (25 cm x 75 μm ID, […], IonOpticks, Australia) containing an integrated captive spray emitter. Peptides were separated using a 50 min gradient of 2 – 30% buffer B (acetonitrile in 0.1% formic acid) with a flow rate of 250 nL/min and column temperature maintained at 50 °C.
(§3) DDA was performed in Parallel Accumulation-Serial Fragmentation (PASEF) mode to determine effective ion mobility windows for downstream diaPASEF data collection (Meier et al., 2020). The ddaPASEF parameters included: 100% duty cycle using accumulation and ramp times of 50 ms each, 1 TIMS-MS scan and 10 PASEF ramps per acquisition cycle. The TIMS-MS survey scan was acquired between 100–1700 m/z and 1/k0 of 0.7–1.3 V.s/cm^2. Precursors with 1–5 charges were selected and those that reached an intensity threshold of 20,000 arbitrary units were actively excluded for 0.4 min. The quadrupole isolation width was set to 2 m/z for m/z <700 and 3 m/z for m/z >800, with the m/z between 700–800 m/z being interpolated linearly. The TIMS elution voltages were calibrated linearly with three points (Agilent ESI-L Tuning Mix Ions; 622, 922, 1,222 m/z) to determine the reduced ion mobility coefficients (1/K0). To perform diaPASEF, the precursor distribution in the DDA m/z-ion mobility plane was used to design an acquisition scheme for DIA data collection which included two windows in each 50 ms diaPASEF scan. Data was acquired using sixteen of these 25 Da precursor double window scans (creating 32 windows) which covered the diagonal scan line for doubly and triply charged precursors, with singly charged precursors able to be excluded by their position in the m/z-ion mobility plane. These precursor isolation windows were defined between 400–1200 m/z and 1/k0 of 0.7–1.3 V.s/cm^2.
(§4) The diaPASEF raw file processing and controlling peptide and protein level false discovery rates, assembling proteins from peptides, and protein quantification from peptides was performed using either targeted, cell line specific spectral libraries generated by searching offline fractionated DDApasef data against a Swissprot human or mouse database (January 2021) or using library free analysis in DIA-NN 1.8 ([85]). Library free mode performs an in-silico digestion of a given protein sequence database alongside deep learning-based predictions to extract the DIA precursor data into a collection of MS2 spectra. The search results are then used to generate a spectral library which is then employed for the targeted analysis of the DIA data searched against a Swissprot human or mouse database (January 2021). […]

KELLY cells = test: Global quantitative proteomics, KELLY; assay type: cell-based, human; conditions: 1 µM; for proteins downregulated (in words): 5 hours
Description: as §1, §2, §3, §4

HEK293T cells = test: Global quantitative proteomics, HEK293T; assay type: cell-based, human; conditions: 1 µM; for proteins downregulated (in words): 5 hours
Description: as §1, §2, §3, §4

[1] = test system: HEK293T cells stably expressing SD40–eGFP; test: Global quantitative proteomics, HEK293T expressing SD40–eGFP; assay type: cell-based, human; conditions: 1 µM
Description: To test the versatility of SD40, we generated five stable HEK293T cell lines that exogenously express N- or C-terminal SD40 fusions with Nluc, Fluc, and the kinase activator PRKRA. […] To investigate whether SD40 targets unintended neosubstrates for degradation, we performed global proteomics using HEK293T cells stably expressing SD40–eGFP.
as §1, §2, §3
The diaPASEF raw file processing and controlling peptide and protein level false discovery rates, assembling proteins from peptides, and protein quantification from peptides was performed using either targeted, cell line specific spectral libraries generated by searching offline fractionated DDApasef data against a Swissprot human or mouse database (January 2021) or using library free analysis in DIA-NN 1.8 ([85]). […]

Ba/F3 cells = test: Global quantitative proteomics, Ba/F3; assay type: cell-based, mouse; conditions: 1 µM; for changes to protein expression (in words): pomalidomide 5 hrs, PT-179 5 and 24 hrs
Description: as §1, §2, §3
The diaPASEF raw file processing and controlling peptide and protein level false discovery rates, assembling proteins from peptides, and protein quantification from peptides was performed using either targeted, cell line specific spectral libraries generated by searching offline fractionated DDApasef data against a Swissprot human or mouse database (January 2021) or using library free analysis in DIA-NN 1.8 ([85]). Library free mode performs an in-silico digestion of a given protein sequence database alongside deep learning-based predictions to extract the DIA precursor data into a collection of MS2 spectra. The search results are then used to generate a spectral library which is then employed for the targeted analysis of the DIA data searched against a Swissprot human or mouse database (January 2021).

[2] = vs DMSO, 5 hr, HEK293T SD40–eGFP
[3] = vs DMSO, 24 hr, HEK293T SD40–eGFP

SMILES: O=C1CCC(N2C(=O)c3ccc(N4CCOCC4)cc3C2=O)C(=O)N1 (stereo not shown) [PT-179]
- proteins downregulated (in words) (MOLT4 cells): did not significantly downregulate any detected proteins
- logFC ACSL1 (P33121) (MOLT4 cells; vs DMSO, 5 hr, MOLT4): -1.03E+00
- logFC APOBEC3C (Q9NRW3) (MOLT4 cells; vs DMSO, 5 hr, MOLT4): -8.07E-01
- logFC ARAP2 (Q8WZ64) (MOLT4 cells; vs DMSO, 5 hr, MOLT4): -9.22E-01
- logFC NXT1 (Q9UKK6) (MOLT4 cells; vs DMSO, 5 hr, MOLT4): -8.48E-01
- logFC SNX11 (Q9Y5W9) (MOLT4 cells; vs DMSO, 5 hr, MOLT4): -9.02E-01
- proteins downregulated (in words) (KELLY cells): no significant degradation of detected proteins
- logFC GLMP (Q8WWB7) (KELLY cells; vs DMSO, 5 hr, KELLY): -1.07E+00
- logFC KIAA1958 (Q8N8K9) (KELLY cells; vs DMSO, 5 hr, KELLY): -1.94E+00
- logFC SYT14 (Q8NB59) (KELLY cells; vs DMSO, 5 hr, KELLY): -1.10E+00
- logFC TIMM8B (Q9Y5J9) (KELLY cells; vs DMSO, 5 hr, KELLY): -1.14E+00
- logFC TUB (P50607) (KELLY cells; vs DMSO, 5 hr, KELLY): -1.12E+00
- proteins downregulated (in words) (HEK293T cells): did not downregulate any detected proteins
- logFC EIF5A (P63241) (HEK293T cells; vs DMSO, 5 hr, HEK293T): 1.52E-01
- logFC GAL (P22466) (HEK293T cells; vs DMSO, 5 hr, HEK293T): 8.26E-01
- logFC ITPKC (Q96DU7) (HEK293T cells; vs DMSO, 5 hr, HEK293T): 6.63E-01
- logFC RBM23 (Q86U06) (HEK293T cells; vs DMSO, 5 hr, HEK293T): 2.25E-01
- logFC ROR1 (Q01973) (HEK293T cells; vs DMSO, 5 hr, HEK293T): 8.84E-01
- proteins degraded (in words) ([1]; 5 and 24 hours, ≥ 2-fold at p ≤ 0.0001, ~7,800 detected): SD40–eGFP was the only significantly degraded protein
- logFC MFSD10 (Q14728) [1, 2]: -5.07E-01
- logFC RAB18 (Q9NP72) [1, 2]: -1.62E-01
- logFC RALY (Q9UKM9) [1, 2]: -1.52E-01
- logFC SD40 (XSD40X; SD40–eGFP) [1, 2]: -4.05E+00
- logFC SYNCRIP (O60506) [1, 2]: -1.02E-01
- logFC H2AFV (Q71UI9) [1, 3]: 1.94E-01
- logFC RPS15 (P62841) [1, 3]: 1.99E-01
- logFC SD40 (XSD40X; SD40–eGFP) [1, 3]: -3.53E+00
- logFC SUMO1P1 (G2XKQ0) [1, 3]: 1.61E-01
- logFC TAGLN3 (Q9UI15) [1, 3]: 4.42E-01
- changes to protein expression (in words) (Ba/F3 cells): do not degrade proteins; also recorded: no significant changes to protein expression
- logFC Bak1 (O08734) (Ba/F3 cells; vs DMSO, 5 hr, Ba/F3): -1.95E-01
- logFC Hspa1l (P16627) (Ba/F3 cells; vs DMSO, 5 hr, Ba/F3): 3.76E-01
- logFC Polr2l (P62876) (Ba/F3 cells; vs DMSO, 5 hr, Ba/F3): 5.32E-01
- logFC Prkd1 (Q62101) (Ba/F3 cells; vs DMSO, 5 hr, Ba/F3): 5.39E-01
- logFC Rpa2 (Q62193) (Ba/F3 cells; vs DMSO, 5 hr, Ba/F3): 1.32E-01
- logFC Pigo (Q9JJI6) (Ba/F3 cells; vs DMSO, 24 hr, Ba/F3): -3.94E-01
- logFC Ppib (P24369) (Ba/F3 cells; vs DMSO, 24 hr, Ba/F3): 9.71E-02
- logFC Prpf38a (Q4FK66) (Ba/F3 cells; vs DMSO, 24 hr, Ba/F3): -1.96E-01
- logFC Ube2v1 (Q9CZY3) (Ba/F3 cells; vs DMSO, 24 hr, Ba/F3): 5.05E-01
- logFC Uchl4 (P58321) (Ba/F3 cells; vs DMSO, 24 hr, Ba/F3): 1.38E-01

SMILES: Nc1cccc2c1C(=O)N(C1CCC(=O)NC1=O)C2=O (stereo not shown) [pomalidomide, reference compound]
- proteins downregulated (in words) (MOLT4 cells): significant downregulation of the previously identified neosubstrates IKZF1 ([9]) and ZFP91
- logFC DYNLT1 (P63172) (MOLT4 cells; vs DMSO, 5 hr, MOLT4): -9.35E-01
- logFC IKZF1 (Q13422) (MOLT4 cells; vs DMSO, 5 hr, MOLT4): -2.37E+00
- logFC IKZF3 (Q9UKT9) (MOLT4 cells; vs DMSO, 5 hr, MOLT4): -9.56E-01
- logFC RAB28 (P51157) (MOLT4 cells; vs DMSO, 5 hr, MOLT4): -1.66E+00
- logFC ZFP91 (Q96JP5) (MOLT4 cells; vs DMSO, 5 hr, MOLT4): -1.83E+00
- proteins downregulated (in words) (KELLY cells): robust downregulation of the developmental transcription factor SALL4 ([32]) and ZFP91
- logFC DTWD1 (Q8N5C7) (KELLY cells; vs DMSO, 5 hr, KELLY): -1.64E+00
- logFC GID8 (Q9NWU2) (KELLY cells; vs DMSO, 5 hr, KELLY): -1.75E+00
- logFC RAB28 (P51157) (KELLY cells; vs DMSO, 5 hr, KELLY): -1.53E+00
- logFC SALL4 (Q9UJQ4) (KELLY cells; vs DMSO, 5 hr, KELLY): -2.26E+00
- logFC SSNA1 (O43805) (KELLY cells; vs DMSO, 5 hr, KELLY): -1.42E+00
- proteins downregulated (in words) (HEK293T cells): induced degradation of ZFP91
- logFC C3 (P01024) (HEK293T cells; vs DMSO, 5 hr, HEK293T): 7.85E-01
- logFC DTWD1 (Q8N5C7) (HEK293T cells; vs DMSO, 5 hr, HEK293T): -1.29E+00
- logFC EIF5A (P63241) (HEK293T cells; vs DMSO, 5 hr, HEK293T): 1.83E-01
- logFC PKM (P14618) (HEK293T cells; vs DMSO, 5 hr, HEK293T): 1.32E-01
- logFC ZFP91 (Q96JP5) (HEK293T cells; vs DMSO, 5 hr, HEK293T): -2.05E+00
- proteins degraded (in words) ([1]; 5 hours): SD40-eGFP was significantly degraded alongside multiple known endogenous neosubstrates of pomalidomide
- logFC MCFD2 (Q8NI22) [1, 2]: -1.02E+00
- logFC SD40 (XSD40X; SD40–eGFP) [1, 2]: -4.04E+00
- logFC SRSF3 (P84103) [1, 2]: -1.12E-01
- logFC SURF4 (O15260) [1, 2]: 2.44E-01
- logFC ZFP91 (Q96JP5) [1, 2]: -2.03E+00
- changes to protein expression (in words) (Ba/F3 cells): do not degrade proteins
- logFC Bola1 (Q9D8S9) (Ba/F3 cells; vs DMSO, 5 hr, Ba/F3): -2.16E-01
- logFC Dusp19 (Q8K4T5) (Ba/F3 cells; vs DMSO, 5 hr, Ba/F3): -7.00E-01
- logFC Inpp5k (Q8C5L6) (Ba/F3 cells; vs DMSO, 5 hr, Ba/F3): -9.47E-01
- logFC Llph (Q9D945) (Ba/F3 cells; vs DMSO, 5 hr, Ba/F3): 2.10E-01
- logFC Med8 (Q9D7W5) (Ba/F3 cells; vs DMSO, 5 hr, Ba/F3): -3.40E-01
